Experiments:
[1] = system: Per2 and Dbp gene expression in MEFs; experiment: Per2 and Dbp gene expression in serum-entrained MEFs treated with FK866, q-PCR; format: cell-based, mouse; settings: MEFs pretreated with 10 nM FK866, then serum-stimulated
Experimental: Each quantitative real-time RT-PCR was performed using the Chromo4 real time detection system (BIO-RAD). […] The reaction was first incubated at 95° C. for 3 min, followed by 40 cycles at 95° C. for 30 s and 60° C. for 1 min.

[2] = system: BMAL1 Lys537 acetylation; experiment: BMAL1 Lys537 acetylation profile in serum-entrained MEFs treated with FK866; format: cell-based, mouse; settings: cultured MEFs
Experimental: This illustrates Nampt modulation of the circadian clock. Panel A depicts Pert and Dbp gene expression levels in serum-entrained MEFs treated with 10 nM FK866 or EtOH as control (solvent:ctrl) were analyzed by q-PCR. The highest value for each gene in EtOH treated MEFs was set to 1. All data presented are the means±SEM of three independent samples. […] Cell extracts prepared from indicated time points were processed to visualize BMAL1 acetylation using the anti-acetyl specific BMAL1 antibody as described herein. Input samples were probed with anti-BMAL1 and anti-GAPDH antibodies. Panel C is a schematic representation of the transcription-enzymatic interplay by which the circadian machinery governs the intracellular levels of NAD^+. The NAD^+-dependent deacetylase SIRT1 is thereby controlling the oscillatory synthesis of its own coenzyme.
NAMPT inhibitor “FK866” treatment experiments MEFs in growing phase (−50% confluent) were pre-treated with 10 nM FK866 dissolved in ethanol/serum-free DMEM 16 hr prior to high serum treatment. After 2 hr serum treatment, medium were changed to serum-free medium containing 10 nM FK866. […]

[3] = molecular target: Nampt (Homo sapiens, UniProt P43490); settings: literature (ref. 30); cited from earlier work
Chain of Nampt (P43490 whole entry): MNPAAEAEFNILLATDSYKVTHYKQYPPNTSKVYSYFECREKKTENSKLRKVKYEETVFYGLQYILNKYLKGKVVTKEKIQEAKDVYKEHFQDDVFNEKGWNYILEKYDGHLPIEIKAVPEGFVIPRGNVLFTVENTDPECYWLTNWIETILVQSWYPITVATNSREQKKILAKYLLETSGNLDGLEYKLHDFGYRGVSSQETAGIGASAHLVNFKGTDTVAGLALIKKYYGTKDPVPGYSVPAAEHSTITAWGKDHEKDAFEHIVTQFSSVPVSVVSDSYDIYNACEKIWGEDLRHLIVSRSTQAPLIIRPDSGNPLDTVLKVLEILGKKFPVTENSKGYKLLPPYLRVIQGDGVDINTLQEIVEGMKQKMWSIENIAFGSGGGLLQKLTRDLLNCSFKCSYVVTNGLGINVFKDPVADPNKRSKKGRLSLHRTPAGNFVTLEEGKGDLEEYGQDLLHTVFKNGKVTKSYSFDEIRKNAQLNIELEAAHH

Structure (SMILES): O=C(/C=C/c1cccnc1)NCCCCC1CCN(C(=O)c2ccccc2)CC1 [FK866]
- increase of amplitude of oscillation (Per2 and Dbp), average [1]: 30-40%
- onset of the circadian peak for both genes (Per2 and Dbp), earlier by [1]: 3 to 4 h
- BMAL1 acetylation at K537 ([2]; 10 nM FK866): heavily increased and displays a broader peak
- effect on BMAL1 protein levels ([2]; 10 nM FK866, any time of the circadian cycle): no major effect
- inhibition of Nampt enzymatic activity [3]: specifically inhibits Nampt enzymatic activity
